What was measured:
[1] = refractive index (Na D-line) (dimensionless); conditions: 101.33 kPa, Liquid, Standard Abbe refractometry
[2] = 100 kPa, Liquid; for speed of sound: Frequency=3 MHz, Sing-around technique in a fixed-path interferometer; for mass density: Vibrating tube method
[3] = refractive index (Na D-line) (dimensionless); xn = mol fraction of the nth substance listed; conditions: 100 kPa, Liquid, Standard Abbe refractometry
[4] = xn = mol fraction of the nth substance listed; conditions: 100 kPa, Liquid; for speed of sound: Frequency=3 MHz, Sing-around technique in a fixed-path interferometer; for mass density: Vibrating tube method

CCCC(=O)O [butanoic acid]
Conditions	mass density, [2] [kg/m3]	refractive index, [1]	speed of sound, [2] [m/s]
293.15 K	957.8	1.3983	1196
298.15 K	952.8	1.3963	1177
303.15 K	947.9	1.3942	1158
308.15 K	942.9	1.3922	1139
313.15 K	938.1	1.3901	1121

CCCC(=O)O [butanoic acid] + CCCCCCC(=O)O
x2 = 0
Conditions	mass density, [4] [kg/m3]	refractive index, [3]	speed of sound, [4] [m/s]
293.15 K	957.8	1.3983	1196
298.15 K	952.8	1.3963	1177
303.15 K	947.9	1.3942	1158
308.15 K	942.9	1.3922	1139
313.15 K	938.1	1.3901	1121

CCOC(=O)OCC [diethyl carbonate]
298.15 K
Conditions	mass density [kg/m3]	refractive index	speed of sound [m/s]
[1]	–	1.3825	–
[2]	969.3	–	1177

CCOC(=O)OCC [diethyl carbonate] + CCO
298.15 K
Conditions	mass density, [4] [kg/m3]	refractive index, [3]	speed of sound, [4] [m/s]
x1 = 0.0415	800.3	1.3614	1145
x1 = 0.0943	817.7	1.3635	1147
x1 = 0.1932	845.9	1.367	1150
x1 = 0.2929	869.6	1.3698	1154
x1 = 0.3938	890	1.3724	1156
x1 = 0.4965	907.8	1.3746	1159
x1 = 0.597	923	1.3765	1162
x1 = 0.6924	935.7	1.3781	1166
x1 = 0.7911	947.6	1.3796	1169
x1 = 0.899	959.3	1.3811	1173
x1 = 0.9413	963.6	1.3817	1175
x1 = 1	969.3	1.3825	1177

CCO [ethanol]
298.15 K
Conditions	mass density [kg/m3]	refractive index	speed of sound [m/s]
[1]	–	1.3594	–
[2]	785.2	–	1142

CCO [ethanol] + CCOC(=O)OCC
298.15 K, x2 = 0
Conditions	mass density [kg/m3]	refractive index	speed of sound [m/s]
[3]	–	1.3594	–
[4]	785.2	–	1142

CCCCCCC(=O)O [heptanoic acid]
Conditions	mass density, [2] [kg/m3]	refractive index, [1]	speed of sound, [2] [m/s]
293.15 K	917.7	1.4234	1295
298.15 K	913.5	1.4214	1278
303.15 K	909.3	1.4194	1260
308.15 K	905.1	1.4173	1242
313.15 K	900.9	1.4153	1225

CCC(=O)O [propanoic acid]
Conditions	mass density, [2] [kg/m3]	refractive index, [1]	speed of sound, [2] [m/s]
293.15 K	993.9	1.3865	1166
298.15 K	988.5	1.3848	1147
303.15 K	983.1	1.383	1128
308.15 K	977.7	1.3811	1109
313.15 K	972.3	1.3792	1090

CCC(=O)O [propanoic acid] + CCCCCCC(=O)O
x2 = 0
Conditions	mass density, [4] [kg/m3]	refractive index, [3]	speed of sound, [4] [m/s]
293.15 K	993.9	1.3865	1166
298.15 K	988.5	1.3848	1147
303.15 K	983.1	1.383	1128
308.15 K	977.7	1.3811	1109
313.15 K	972.3	1.3792	1090

— the NIST ThermoML archive (doi:10.1016/j.jct.2014.06.004)
